# Results from patent US11390621B2, “Chiral indole compounds and their use” (ARIAGEN, INC., priority 2019, dated 2022).
# “And” between values parts separate entries of the source, which are not always exact repeats. Equal entries are not always repeated. Where two headings read alike, the source gives them in different places.
# Tests used:
# [1] = In vivo pharmacokinetic studies in rats; parameters: species or system SD rats; details: rats; for AUC(0-t): read-out: AUClast; for Tmax: read-out: Tmax
# Procedure: This example describes pharmacokinetic (PK) studies of ARI-164, ARI-165, ARI-186, ARI-224, and ARI-226 in mice and rats. In the present studies, the test compounds were given to groups of mice and/or rats (N=3 in each group), intravenously (IV) at 2 mg/kg or orally (PO) at 10, 30, or 40 mg/kg. ARI-186, ARI-224 and ARI-226 were given orally to rats QD for 5 days at 10 mg/kg to assess whether decreased susceptibility to CYP1A1/1A2 metabolism would lead to increased accumulation. IV doses were formulated in DMSO, while PO doses were formulated in a 50/50 mixture of PEG400 and Tween 80 (single dose mouse and rat studies for ARI-164, ARI-165, ARI-186, ARI-224, ARI-226) or PEG400/Kolliphor HS15/Oleic Acid 45/45/10 (ARI-164 repeat dose rat study). Blood samples were collected at pre-dose and over a period of 24 hours post-dose. Plasma concentrations of the test compounds were determined by HPLC.
# EMT-6 cancer cells = experiment: EMT-6 subcutaneous syngeneic mouse tumor model (Example 48); format: in vivo, BALB/C mice; details: 40 mg/kg, IP
# Procedure: This example describes in vivo studies that evaluated the anti-cancer efficacy of ARI-143, ARI-164, ARI-165, and ARI-186 in syngeneic mouse tumor models. Mice implanted subcutaneously with EMT-6 or Pan02 cancer cells were treated with ARI-143, ARI-164, ARI-165, ARI-186, or vehicle controls, as described below.
# A monolayer culture of tumor cells was maintained in vitro in DMEM or RPMI1640 medium supplemented with 10% fetal bovine serum at 37° C. in an atmosphere of 5% CO2. Cells in exponential growth phase were harvested and quantitated by cell counter before tumor inoculation. The cell lines used are described in the table below.
# Two subcutaneous syngeneic mouse tumor models were generated by innoculating female BALB/C or C57BL/6 mice with cancer cells at their right lower or front flank as detailed in the table below:
# Each mouse was inoculated subcutaneously with tumor cells in 0.1 mL of PBS. Treatments were started when the mean tumor size reached approximately 80-120 mm^3 (around 100 mm^3). The administration of the test compounds and the animal number in each study group are shown in the study design. The date of tumor cell inoculation was denoted as day 0.
# ARI-143, ARI-164, and ARI-165 were dissolved in DMSO at the final concentration of 26.7 mg/ml and stored at room temperature. In Pan02 studies of ARI-164 and ARI-186, both compounds were dissolved in 100% PEG400.
# Randomization of animals was started when the mean tumor size reached approximately 90 mm^3 to form the mouse study groups. The randomization was-performed based on “Matched distribution” method using the multi-task method (StudyDirector™ software, version 3.1.399.19)/randomized block design. The mouse groups (ten in each group) were treated with vehicle (DMSO or PEG400) or the test compounds at a dose of 26-80 mg/kg by intraperitoneal (i.p.). injection, QD for 28 days or longer.
# After tumor cell inoculation, the mice were checked daily for morbidity and mortality. During routine monitoring, the mice were checked for tumor growth and any effects of the treatment on behavior such as mobility, food and water consumption, body weight gain/loss (body weights were measured twice per week after randomization), eye/hair matting, and any other abnormalities. Mortality and observed clinical signs were recorded for individual mice in detail.
# Tumor volumes were measured twice per week in two dimensions using a caliper, and the volume was expressed in mm^3 using the formula: V=(L×W×W)/2, where V is tumor volume, L is tumor length (the longest tumor dimension) and W is tumor width (the longest tumor dimension perpendicular to L). Dosing as well as tumor and body weight measurements was conducted in a Laminar Flow Cabinet. The body weights and tumor volumes were measured by using StudyDirector™ software (version 3.1.399.19). Dosing Holiday
# Tumor growth inhibition percentage (TGI %) is an indicator for antitumor activity of a drug compound, and expressed as: TGI(%)=100×(1−T/C), where T and C are the mean tumor volume (or weight) of the treated and control groups, respectively, on a given day. Statistical analysis of the difference in mean tumor volume (MTV) among the groups was conducted using the data collected on the day when the MTV of the vehicle group reached the humane endpoints, so that TGI could be derived for all or most mice enrolled in the study.
# [2] = SD, rat, plasma, iv, 2 mg/kg, single 2 mg/kg IV dose, Mean of 3 animals
# [3] = SD, rat, plasma, iv, 2 mg/kg, single 2 mg/kg IV dose, individual animal
# [4] = Sprague-Dawley (SD), rat, plasma, iv, 2 mg/kg, single 2 mg/kg IV dose, Mean of 3 animals
# [5] = Sprague-Dawley (SD), rat, plasma, po, 10 mg/kg, single 10 mg/kg PO dose, Mean of 3 animals
# [6] = Sprague-Dawley (SD), rat, plasma, po, 10 mg/kg, single 10 mg/kg PO dose, individual animal
# [7] = single 2 mg/kg IV dose, individual animal, 2 mg/kg
# [8] = single 10 mg/kg PO dose, individual animal, 10 mg/kg
compound,measurement,setting,value
"CC[C@@H](O)c1csc(C(=O)c2c[nH]c3cc(F)ccc23)n1 [ARI-165, (R)-(6-Fluoro-1H-indol-3-yl)(4-(1-hydroxypropyl)thiazol-2-yl)methanone]",AUC(0-inf),[1]; [2],12800 ng·h/mL
same,clearance,[1]; [2],5.38 mL/min/kg
same,AUC(0-t),[1]; [2],12600 ng·h/mL
same,MRT inf,[1]; [3],0.81 h
same,MRT last,[1]; [3],0.79 h
same,Tmax,[1]; [3],0.083 h
same,MRT inf,[1]; [4],1.11 h
same,MRT last,[1]; [4],0.959 h
same,half-life,[1]; [4],1.33 h
same,Cmax,"[1]; Sprague-Dawley (SD), rat, plasma, iv, 2 mg/kg, single 2 mg/kg IV dose, Mean of 3 animals, read-out: Cmax",19200 ng/mL
same,Tmax,[1]; [4],0.083 h
same,Vd,"[1]; Sprague-Dawley (SD), rat, plasma, iv, 2 mg/kg, single 2 mg/kg IV dose, Mean of 3 animals, read-out: Vss",0.32 L/kg
same,AUC(0-inf),[1]; [5],4310 ng·h/mL
same,MRT inf,[1]; [5],3.08 h
same,MRT last,[1]; [5],2.82 h
same,half-life,[1]; [5],1.09 h
same,AUC(0-t),[1]; [5],4160 ng·h/mL
same,Cmax,"[1]; Sprague-Dawley (SD), rat, plasma, po, 10 mg/kg, single 10 mg/kg PO dose, Mean of 3 animals, read-out: Cmax",1120 ng/mL
same,Tmax,[1]; [5],2 h
same,AUC(0-inf),[1]; [6],4680 ng·h/mL
same,MRT inf,[1]; [6],3.41 h
same,MRT last,[1]; [6],2.71 h
same,AUC(0-t),[1]; [6],4260 ng·h/mL
same,Cmax,"[1]; Sprague-Dawley (SD), rat, plasma, po, 10 mg/kg, single 10 mg/kg PO dose, individual animal, read-out: Cmax",1250 ng/mL
same,Tmax,[1]; [6],2 h
same,bioavailability,"[1]; Sprague-Dawley (SD), rat, plasma, 10 mg/kg PO vs 2 mg/kg IV, read-out: F (Bioavailability)",6.73%
same,AUCinf,[1]; [7],19500 ng·h/mL and 16300 ng·h/mL and 2690 ng·h/mL
same,AUClast,[1]; [7],19500 ng·h/mL and 15700 ng·h/mL and 2620 ng·h/mL
same,Cl,[1]; [7],1.72 mL/min/kg and 2.05 mL/min/kg and 12.4 mL/min/kg
same,Cmax,[1]; [7],36500 ng/mL and 17100 ng/mL and 3880 ng/mL
same,MRTinf,[1]; [7],1.61 h and 0.91 h
same,MRTlast,[1]; [7],1.28 h and 0.8 h
same,T1/2,[1]; [7],1.07 h and 2.11 h and 0.83 h
same,Vss,[1]; [7],0.0832 L/kg and 0.198 L/kg and 0.677 L/kg
same,AUCinf,[1]; [8],4650 ng·h/mL and 3620 ng·h/mL
same,AUClast,[1]; [8],4640 ng·h/mL and 3560 ng·h/mL
same,Cmax,[1]; [8],1070 ng/mL and 1040 ng/mL
same,MRTinf,[1]; [8],3.12 h and 2.71 h
same,MRTlast,[1]; [8],3.12 h and 2.64 h
same,T1/2,[1]; [8],1.87 h and 0.541 h and 0.87 h
same,TGI,EMT-6 cancer cells; study day 6,0.0%
same,TGI,EMT-6 cancer cells; study day 10,−7.9%
same,TGI,EMT-6 cancer cells; study day 13,−8.6%
same,TGI,EMT-6 cancer cells; study day 17,14.5%
same,TGI,EMT-6 cancer cells; study day 20,23.1%
same,TGI,EMT-6 cancer cells; study day 24,25.8%
same,TGI,EMT-6 cancer cells; study day 27,12.5%
same,TGI,EMT-6 cancer cells; study day 31,9.1%
